What was measured:
Assay in all cases: radiometric filter-binding kinase assay, Kinase HotSpot
Settings in all cases: compound 0.5 µM; ATP 10 µM
[1] = target: PRKD2 (human) (UniProt Q9BZL6)
[2] = target: EPHA2 (human) (UniProt P29317)
[3] = target: PLK3 (human) (UniProt Q9H4B4)
[4] = target: ACVR1B (human) (UniProt P36896)
[5] = target: CSF1R (human) (UniProt P07333)
[6] = target: EPHB3 (human) (UniProt P54753)
[7] = target: RPS6KA6 KD1 KD2 (human) (UniProt Q9UK32)
[8] = target: FLT3 (human) (UniProt P36888)
[9] = target: NEK2 (human) (UniProt P51955)
[10] = target: BRSK2 (human) (UniProt Q8IWQ3)
[11] = target: SRPK1 (human) (UniProt Q96SB4)
[12] = target: SRPK2 (human) (UniProt P78362)
[13] = target: MAP2K2 (human) (UniProt P36507)
[14] = target: VRK1 (human) (UniProt Q99986)
[15] = target: CDK5 CDK5R1 p35 (human) (UniProt Q00535+Q15078)
[16] = target: DYRK3 (human) (UniProt O43781)
[17] = target: MERTK (human) (UniProt Q12866)
[18] = target: RPS6KA4 KD2 (human) (UniProt O75676)
[19] = target: TGFBR2 (human) (UniProt P37173)
[20] = target: SRMS (human) (UniProt Q9H3Y6)
[21] = target: MAP2K1 (human) (UniProt Q02750)
[22] = target: RPS6KB1 (human) (UniProt P23443)
[23] = target: RET (human) (UniProt P07949)
[24] = target: CAMK2D (human) (UniProt Q13557)
[25] = target: CLK1 (human) (UniProt P49759)
[26] = target: TEC (human) (UniProt P42680)
[27] = target: GSG2 (human) (UniProt Q8TF76)
[28] = target: NEK6 (human) (UniProt Q9HC98)
[29] = target: CHEK2 (human) (UniProt O96017)
[30] = target: RAF1 (human) (UniProt P04049)
[31] = target: CDK6 CCND3 (human) (UniProt P30281+Q00534)
[32] = target: BRSK1 (human) (UniProt Q8TDC3)
[33] = target: MAP3K14 (human) (UniProt Q99558)
[34] = target: DYRK2 (human) (UniProt Q92630)
[35] = target: DYRK1B (human) (UniProt Q9Y463)
[36] = target: FRK (human) (UniProt P42685)
[37] = target: CSNK1A1 (human) (UniProt P48729)
[38] = target: CSNK1G2 (human) (UniProt P78368)
[39] = target: FGFR1 (human) (UniProt P11362)
[40] = target: TYRO3 (human) (UniProt Q06418)
[41] = target: HCK (human) (UniProt P08631)
[42] = target: DYRK1A (human) (UniProt Q13627)

Chain of CDK6 CCND3 (human) (P30281 whole entry, looked up): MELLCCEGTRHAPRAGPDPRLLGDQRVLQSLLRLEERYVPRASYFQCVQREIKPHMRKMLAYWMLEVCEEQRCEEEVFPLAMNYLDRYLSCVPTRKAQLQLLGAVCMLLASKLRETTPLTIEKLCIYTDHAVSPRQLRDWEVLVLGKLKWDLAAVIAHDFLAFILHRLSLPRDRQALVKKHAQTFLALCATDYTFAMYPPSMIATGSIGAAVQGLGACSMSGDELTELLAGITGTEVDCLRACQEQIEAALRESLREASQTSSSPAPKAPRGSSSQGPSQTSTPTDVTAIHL
Chain of CDK6 CCND3 (human) (Q00534 whole entry, looked up): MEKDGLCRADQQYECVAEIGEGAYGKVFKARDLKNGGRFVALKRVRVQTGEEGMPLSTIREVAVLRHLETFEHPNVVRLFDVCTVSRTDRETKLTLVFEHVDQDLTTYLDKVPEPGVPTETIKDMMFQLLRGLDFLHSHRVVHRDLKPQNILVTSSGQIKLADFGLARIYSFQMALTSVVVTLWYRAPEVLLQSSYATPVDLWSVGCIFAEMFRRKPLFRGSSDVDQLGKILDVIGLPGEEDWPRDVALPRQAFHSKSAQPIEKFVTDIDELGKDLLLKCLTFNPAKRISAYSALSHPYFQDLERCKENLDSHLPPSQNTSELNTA
Chain of CAMK2D (human) (Q13557 whole entry, looked up): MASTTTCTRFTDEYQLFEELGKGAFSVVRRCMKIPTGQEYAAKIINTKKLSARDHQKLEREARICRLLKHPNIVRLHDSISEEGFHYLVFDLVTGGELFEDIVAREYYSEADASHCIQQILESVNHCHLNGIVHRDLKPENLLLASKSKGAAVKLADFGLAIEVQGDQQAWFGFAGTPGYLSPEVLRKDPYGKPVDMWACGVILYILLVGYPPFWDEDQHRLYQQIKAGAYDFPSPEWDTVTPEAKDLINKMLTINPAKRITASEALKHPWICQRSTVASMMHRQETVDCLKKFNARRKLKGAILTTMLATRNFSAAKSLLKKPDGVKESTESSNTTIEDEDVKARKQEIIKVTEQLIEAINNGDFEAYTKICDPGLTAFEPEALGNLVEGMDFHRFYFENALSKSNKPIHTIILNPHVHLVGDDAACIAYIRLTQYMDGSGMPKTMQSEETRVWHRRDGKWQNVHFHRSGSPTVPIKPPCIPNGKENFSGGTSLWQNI
Chain of RPS6KB1 (human) (P23443 whole entry, looked up): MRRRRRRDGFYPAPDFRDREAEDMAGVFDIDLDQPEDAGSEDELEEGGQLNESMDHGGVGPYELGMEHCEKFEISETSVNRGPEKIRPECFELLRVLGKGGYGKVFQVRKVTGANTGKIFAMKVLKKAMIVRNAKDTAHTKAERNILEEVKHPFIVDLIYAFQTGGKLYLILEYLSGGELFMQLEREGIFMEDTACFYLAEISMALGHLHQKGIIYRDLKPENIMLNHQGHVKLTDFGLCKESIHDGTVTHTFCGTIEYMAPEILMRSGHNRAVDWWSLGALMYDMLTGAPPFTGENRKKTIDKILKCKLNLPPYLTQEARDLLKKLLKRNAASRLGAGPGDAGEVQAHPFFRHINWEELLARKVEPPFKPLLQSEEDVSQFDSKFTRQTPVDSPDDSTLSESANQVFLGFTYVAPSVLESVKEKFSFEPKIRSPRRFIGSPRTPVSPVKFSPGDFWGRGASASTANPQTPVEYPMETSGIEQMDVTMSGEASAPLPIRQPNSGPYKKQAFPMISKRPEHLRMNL
Chain of DYRK3 (human) (O43781 whole entry, looked up): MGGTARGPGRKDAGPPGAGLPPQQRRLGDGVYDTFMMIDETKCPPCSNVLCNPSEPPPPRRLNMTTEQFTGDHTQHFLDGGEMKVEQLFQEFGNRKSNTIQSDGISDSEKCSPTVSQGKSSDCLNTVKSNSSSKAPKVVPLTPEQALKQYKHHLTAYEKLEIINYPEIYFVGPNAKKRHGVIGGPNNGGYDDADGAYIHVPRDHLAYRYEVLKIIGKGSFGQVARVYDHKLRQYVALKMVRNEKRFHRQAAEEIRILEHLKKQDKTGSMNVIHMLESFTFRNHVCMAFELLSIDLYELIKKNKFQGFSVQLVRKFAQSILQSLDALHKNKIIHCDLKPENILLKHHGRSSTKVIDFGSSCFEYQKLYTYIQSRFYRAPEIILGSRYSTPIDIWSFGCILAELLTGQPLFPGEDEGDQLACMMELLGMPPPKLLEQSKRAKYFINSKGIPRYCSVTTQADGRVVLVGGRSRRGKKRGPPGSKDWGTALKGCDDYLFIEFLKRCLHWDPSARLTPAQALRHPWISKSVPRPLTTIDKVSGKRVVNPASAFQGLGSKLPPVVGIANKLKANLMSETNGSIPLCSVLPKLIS
Chain of EPHA2 (human) (P29317 whole entry, looked up): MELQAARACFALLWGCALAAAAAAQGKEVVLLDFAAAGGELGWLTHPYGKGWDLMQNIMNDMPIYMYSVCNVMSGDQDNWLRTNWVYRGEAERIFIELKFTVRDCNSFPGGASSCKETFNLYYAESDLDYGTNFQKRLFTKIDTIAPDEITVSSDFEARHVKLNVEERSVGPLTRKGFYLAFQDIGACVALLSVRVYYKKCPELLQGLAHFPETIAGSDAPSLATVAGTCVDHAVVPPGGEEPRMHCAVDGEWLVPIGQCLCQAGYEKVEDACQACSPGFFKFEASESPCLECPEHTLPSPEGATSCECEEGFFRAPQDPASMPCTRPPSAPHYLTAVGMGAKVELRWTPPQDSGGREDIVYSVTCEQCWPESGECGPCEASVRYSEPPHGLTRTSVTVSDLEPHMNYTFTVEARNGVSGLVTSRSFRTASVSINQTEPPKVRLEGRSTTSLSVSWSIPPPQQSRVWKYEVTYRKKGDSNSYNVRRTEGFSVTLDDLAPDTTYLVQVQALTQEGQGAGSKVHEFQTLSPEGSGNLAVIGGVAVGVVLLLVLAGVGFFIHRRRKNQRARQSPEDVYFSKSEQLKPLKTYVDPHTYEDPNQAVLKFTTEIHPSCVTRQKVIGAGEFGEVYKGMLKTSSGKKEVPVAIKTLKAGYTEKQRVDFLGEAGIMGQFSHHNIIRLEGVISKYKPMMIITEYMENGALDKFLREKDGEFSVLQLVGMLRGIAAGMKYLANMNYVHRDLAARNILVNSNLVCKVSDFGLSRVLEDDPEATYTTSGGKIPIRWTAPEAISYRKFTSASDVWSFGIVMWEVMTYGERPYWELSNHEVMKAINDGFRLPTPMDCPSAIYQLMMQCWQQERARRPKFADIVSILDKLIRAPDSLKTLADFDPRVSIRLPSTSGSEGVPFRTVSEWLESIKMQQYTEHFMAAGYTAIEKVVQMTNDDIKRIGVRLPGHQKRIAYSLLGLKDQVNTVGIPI
Chain of RET (human) (P07949 whole entry, looked up): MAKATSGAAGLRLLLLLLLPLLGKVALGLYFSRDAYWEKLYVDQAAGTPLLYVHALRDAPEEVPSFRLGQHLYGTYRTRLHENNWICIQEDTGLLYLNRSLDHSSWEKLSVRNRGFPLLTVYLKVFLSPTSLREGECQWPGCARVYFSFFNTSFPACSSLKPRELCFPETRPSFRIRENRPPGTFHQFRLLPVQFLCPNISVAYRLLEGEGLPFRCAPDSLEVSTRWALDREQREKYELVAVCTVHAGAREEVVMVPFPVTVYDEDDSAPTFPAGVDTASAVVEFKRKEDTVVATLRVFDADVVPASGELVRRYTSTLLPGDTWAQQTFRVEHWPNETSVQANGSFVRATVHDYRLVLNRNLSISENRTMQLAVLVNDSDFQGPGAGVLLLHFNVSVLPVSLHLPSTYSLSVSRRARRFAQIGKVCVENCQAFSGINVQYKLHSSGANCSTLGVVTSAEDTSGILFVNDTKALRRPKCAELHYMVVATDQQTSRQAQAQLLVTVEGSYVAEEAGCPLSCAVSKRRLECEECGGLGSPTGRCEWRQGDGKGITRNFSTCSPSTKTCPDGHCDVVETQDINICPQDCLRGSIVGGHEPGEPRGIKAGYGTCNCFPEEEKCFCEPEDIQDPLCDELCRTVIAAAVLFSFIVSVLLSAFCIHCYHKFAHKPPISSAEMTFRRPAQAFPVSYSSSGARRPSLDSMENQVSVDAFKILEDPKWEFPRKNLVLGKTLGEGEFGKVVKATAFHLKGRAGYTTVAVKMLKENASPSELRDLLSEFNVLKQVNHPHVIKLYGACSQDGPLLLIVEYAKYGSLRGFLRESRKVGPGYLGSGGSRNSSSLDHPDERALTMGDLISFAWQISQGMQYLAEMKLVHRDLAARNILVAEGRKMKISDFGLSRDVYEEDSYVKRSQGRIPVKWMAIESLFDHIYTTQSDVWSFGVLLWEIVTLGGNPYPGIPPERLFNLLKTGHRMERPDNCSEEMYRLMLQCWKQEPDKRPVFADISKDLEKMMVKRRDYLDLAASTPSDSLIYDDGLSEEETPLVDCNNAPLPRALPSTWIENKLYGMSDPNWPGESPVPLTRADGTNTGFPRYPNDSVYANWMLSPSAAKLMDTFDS
Chain of CSNK1A1 (human) (P48729 whole entry, looked up): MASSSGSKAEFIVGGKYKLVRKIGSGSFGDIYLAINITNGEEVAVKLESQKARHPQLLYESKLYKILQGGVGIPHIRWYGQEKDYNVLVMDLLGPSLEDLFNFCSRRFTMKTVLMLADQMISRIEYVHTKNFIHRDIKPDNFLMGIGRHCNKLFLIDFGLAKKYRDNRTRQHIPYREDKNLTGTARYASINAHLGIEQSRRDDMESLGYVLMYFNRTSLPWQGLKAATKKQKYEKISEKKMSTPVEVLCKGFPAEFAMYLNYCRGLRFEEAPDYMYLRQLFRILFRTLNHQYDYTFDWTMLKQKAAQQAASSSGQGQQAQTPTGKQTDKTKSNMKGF
Chain of NEK6 (human) (Q9HC98 whole entry, looked up): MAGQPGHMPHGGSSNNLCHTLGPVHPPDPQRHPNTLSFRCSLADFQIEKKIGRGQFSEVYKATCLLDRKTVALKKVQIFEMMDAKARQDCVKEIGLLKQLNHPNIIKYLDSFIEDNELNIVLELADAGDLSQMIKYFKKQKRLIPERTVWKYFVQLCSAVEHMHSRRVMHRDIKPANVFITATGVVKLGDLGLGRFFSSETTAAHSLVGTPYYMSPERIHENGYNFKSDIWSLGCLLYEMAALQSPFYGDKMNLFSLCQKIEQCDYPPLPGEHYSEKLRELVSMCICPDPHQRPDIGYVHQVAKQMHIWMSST

**Q.** For `Nc1n[nH]c2nnc(-c3c(-c4ccccc4)nn4ccccc34)cc12`, which residual activity [1] is on record?
**A.** 54.1%

**Q.** What about the residual activity [2] of the same compound?
**A.** 98.3%

**Q.** What about the residual activity [3] of the same compound?
**A.** 100%

**Q.** What about the residual activity [4] of the same compound?
**A.** 107%

**Q.** What about the residual activity [5] of the same compound?
**A.** 96.8%

**Q.** What about the residual activity [6] of the same compound?
**A.** 96.8%

**Q.** What about the residual activity [7] of the same compound?
**A.** 95.5%

**Q.** What about the residual activity [8] of the same compound?
**A.** 63.5%

**Q.** And the residual activity [9]?
**A.** 95.3%

**Q.** And the residual activity [10]?
**A.** 96.1%

**Q.** What about the residual activity [11] of the same compound?
**A.** 83.7%

**Q.** And the residual activity [12]?
**A.** 73.8%

**Q.** And the residual activity [13]?
**A.** 99.4%

**Q.** And the residual activity [14]?
**A.** 92.2%

**Q.** What about the residual activity [15] of the same compound?
**A.** 105%

**Q.** What about the residual activity [16] of the same compound?
**A.** 99.8%

**Q.** And the residual activity [17]?
**A.** 76.4%

**Q.** What about the residual activity [18] of the same compound?
**A.** 94.7%

**Q.** And the residual activity [19]?
**A.** 112%

**Q.** What about the residual activity [20] of the same compound?
**A.** 93%

**Q.** What about the residual activity [21] of the same compound?
**A.** 94.3%

**Q.** And the residual activity [22]?
**A.** 97.7%

**Q.** What about the residual activity [23] of the same compound?
**A.** 93.7%

**Q.** What about the residual activity [24] of the same compound?
**A.** 96.5%

**Q.** And the residual activity [25]?
**A.** 108%

**Q.** And the residual activity [26]?
**A.** 96.1%

**Q.** What about the residual activity [27] of the same compound?
**A.** 97.1%

**Q.** And the residual activity [28]?
**A.** 95.6%

**Q.** And the residual activity [29]?
**A.** 97%

**Q.** And the residual activity [30]?
**A.** 95.6%

**Q.** And the residual activity [31]?
**A.** 90.4%

**Q.** What about the residual activity [32] of the same compound?
**A.** 98.6%

**Q.** What about the residual activity [33] of the same compound?
**A.** 102%

**Q.** What about the residual activity [34] of the same compound?
**A.** 103%

**Q.** What about the residual activity [35] of the same compound?
**A.** 101%

**Q.** And the residual activity [36]?
**A.** 101%

**Q.** What about the residual activity [37] of the same compound?
**A.** 100%

**Q.** What about the residual activity [38] of the same compound?
**A.** 93.7%

**Q.** And the residual activity [39]?
**A.** 94.7%

**Q.** What about the residual activity [40] of the same compound?
**A.** 97.6%

**Q.** What about the residual activity [41] of the same compound?
**A.** 91.1%

**Q.** And the residual activity [42]?
**A.** 102%

**Q.** Which residual activity [1] does the source give for `O=c1cc(N2CCNCC2)oc2c(-c3ccccc3)cccc12` here?
**A.** 86.7%

**Q.** And the residual activity [2]?
**A.** 108%

**Q.** And the residual activity [3]?
**A.** 104%

**Q.** What about the residual activity [4] of the same compound?
**A.** 105%

**Q.** And the residual activity [5]?
**A.** 108%

**Q.** And the residual activity [6]?
**A.** 94.5%

**Q.** What about the residual activity [7] of the same compound?
**A.** 99%

**Q.** What about the residual activity [8] of the same compound?
**A.** 108%

**Q.** And the residual activity [9]?
**A.** 86%

**Q.** What about the residual activity [10] of the same compound?
**A.** 103%

**Q.** And the residual activity [11]?
**A.** 106%

**Q.** What about the residual activity [12] of the same compound?
**A.** 105%

**Q.** And the residual activity [13]?
**A.** 94%

**Q.** And the residual activity [14]?
**A.** 92.1%

**Q.** And the residual activity [15]?
**A.** 102%

**Q.** And the residual activity [16]?
**A.** 97.8%

**Q.** And the residual activity [17]?
**A.** 98.3%

**Q.** And the residual activity [18]?
**A.** 117%

**Q.** And the residual activity [19]?
**A.** 88.4%

**Q.** And the residual activity [20]?
**A.** 104%

**Q.** What about the residual activity [21] of the same compound?
**A.** 103%

**Q.** What about the residual activity [22] of the same compound?
**A.** 102%

**Q.** What about the residual activity [23] of the same compound?
**A.** 106%

**Q.** What about the residual activity [24] of the same compound?
**A.** 93.6%

**Q.** And the residual activity [25]?
**A.** 102%

**Q.** And the residual activity [26]?
**A.** 99.8%

**Q.** And the residual activity [27]?
**A.** 94.3%

**Q.** And the residual activity [28]?
**A.** 105%

**Q.** What about the residual activity [29] of the same compound?
**A.** 96.6%

**Q.** What about the residual activity [30] of the same compound?
**A.** 94.2%

**Q.** What about the residual activity [31] of the same compound?
**A.** 93.8%

**Q.** What about the residual activity [32] of the same compound?
**A.** 95.3%

**Q.** What about the residual activity [33] of the same compound?
**A.** 110%

**Q.** And the residual activity [34]?
**A.** 96.8%

**Q.** What about the residual activity [35] of the same compound?
**A.** 99.2%

**Q.** What about the residual activity [36] of the same compound?
**A.** 105%

**Q.** And the residual activity [37]?
**A.** 104%

**Q.** And the residual activity [38]?
**A.** 101%

**Q.** And the residual activity [39]?
**A.** 110%

**Q.** What about the residual activity [40] of the same compound?
**A.** 107%

**Q.** And the residual activity [41]?
**A.** 93.7%

**Q.** And the residual activity [42]?
**A.** 96.8%

**Q.** What does the source list for `O=C1Nc2ccccc2/C1=C\c1c(Cl)[nH]c2ccccc12`?
**A.** residual activity [1]: 90.2%; residual activity [2]: 97.3%; residual activity [3]: 101%; residual activity [4]: 105%; residual activity [5]: 97.2%; residual activity [6]: 91.3%; residual activity [7]: 91.2%; residual activity [8]: 80.5%; residual activity [9]: 99%; residual activity [10]: 96.2%; residual activity [11]: 94.2%; residual activity [12]: 94.4%; residual activity [13]: 98.7%; residual activity [14]: 104%; residual activity [15]: 86.7%; residual activity [16]: 101%; residual activity [17]: 88.2%; residual activity [18]: 93.6%; residual activity [19]: 95.6%; residual activity [20]: 84.2%; residual activity [21]: 84.8%; residual activity [22]: 99.7%; residual activity [23]: 93%; residual activity [24]: 86.7%; residual activity [25]: 103%; residual activity [26]: 124%; residual activity [27]: 91%; residual activity [28]: 96.5%; residual activity [29]: 99.4%; residual activity [30]: 89.9%; residual activity [31]: 104%; residual activity [32]: 91.9%; residual activity [33]: 92.6%; residual activity [34]: 103%; residual activity [35]: 99.3%; residual activity [36]: 100%; residual activity [37]: 102%; residual activity [38]: 96.3%; residual activity [39]: 92%; residual activity [40]: 99.4%; residual activity [41]: 98.5%; residual activity [42]: 107%

**Q.** What does the source list for `Oc1ccc(-c2nc(-c3ccc(F)cc3)c(-c3ccncc3)[nH]2)cc1`?
**A.** residual activity [1]: 79.9%; residual activity [2]: 91.3%; residual activity [3]: 96.2%; residual activity [4]: 136%; residual activity [5]: 96.9%; residual activity [6]: 97.7%; residual activity [7]: 110%; residual activity [8]: 95.1%; residual activity [9]: 101%; residual activity [10]: 101%; residual activity [11]: 109%; residual activity [12]: 102%; residual activity [13]: 101%; residual activity [14]: 98.7%; residual activity [15]: 97.3%; residual activity [16]: 101%; residual activity [17]: 85.2%; residual activity [18]: 95.9%; residual activity [19]: 127%; residual activity [20]: 102%; residual activity [21]: 93%; residual activity [22]: 87.8%; residual activity [23]: 89.3%; residual activity [24]: 88.1%; residual activity [25]: 107%; residual activity [26]: 106%; residual activity [27]: 86.9%; residual activity [28]: 99.4%; residual activity [29]: 98.9%; residual activity [30]: 25.8%; residual activity [31]: 104%; residual activity [32]: 101%; residual activity [33]: 115%; residual activity [34]: 99.3%; residual activity [35]: 105%; residual activity [36]: 90.4%; residual activity [37]: 62.3%; residual activity [38]: 91.9%; residual activity [39]: 86.8%; residual activity [40]: 97.5%; residual activity [41]: 97.6%; residual activity [42]: 99.6%

Source: the kinase profiling compilation of Christmann-Franck et al. (2016)
